Reference: PubChem BioAssay AID608 (Sanford-Burnham Center for Chemical Genomics, 2007)
The source made the active and inactive calls. The rule behind the calls is not given here.

Target: Peptidyl-prolyl cis-trans isomerase FKBP1A (Homo sapiens) (UniProt P62942)
Test: small-molecule binding to FKBP12 – biophysical, NMR detection (AID 608)
Conditions: purified FKBP12

Peptidyl-prolyl cis-trans isomerase FKBP1A (Homo sapiens), sequence (P62942 whole entry, looked up): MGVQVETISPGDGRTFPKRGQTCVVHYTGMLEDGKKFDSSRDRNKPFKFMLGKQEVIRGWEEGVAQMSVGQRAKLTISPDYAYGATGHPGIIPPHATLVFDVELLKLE

| SMILES | Kd |
| --- | --- |
| CC(=O)Nc1sc(C)c(C)c1C(N)=O | > 4 mM (inactive) |
| OC1CNCc2cc3c(cc21)OCCO3 (stereo not given) | > 4 mM (inactive) |
| COc1ccc(-c2coc3c(O)c(OC)ccc3c2=O)cc1 | > 4 mM (inactive) |
| O=C(Nc1c[nH]c(=O)[nH]c1=O)c1ccccc1F | > 4 mM (inactive) |
| NC(=O)c1ccc(C(N)=O)c(-c2ccccc2)c1 | > 4 mM (inactive) |
| CSc1ccc(C2NC(=O)CCC2[N+](=O)[O-])cc1 (stereo not given) | > 4 mM (inactive) |
| O=C1CC(c2c[nH]c3ccccc23)C(=O)N1 (stereo not given) | > 4 mM (inactive) |
| Nc1cccc(C(=O)Nc2ccc(N)cc2Cl)c1 | > 4 mM (inactive) |
| O=C1NC(=O)/C(=C/c2ccc(O)cc2)N1 | > 4 mM (inactive) |
| CCOC(=O)c1cnc2sccn2c1=O | > 4 mM (inactive) |
| Cc1nc2ccccc2c(=O)n1NC(=O)C1CCCCC1 | > 4 mM (inactive) |
| COc1cccc(=O)c2c(C)n(C)c(C)c12 | > 4 mM (inactive) |
| NC(=O)C1CCN(C(=O)c2ccco2)CC1 | > 4 mM (inactive) |
| O=C(c1ccco1)N1C(=O)c2cccc3cccc1c23 | > 4 mM (inactive) |
| O=C1CSC(c2ccccc2)N1 (stereo not given) | > 4 mM (inactive) |
| O=C(Nc1ccccc1)Nc1ccccc1 | > 4 mM (inactive) |
| Nc1nc2n(c1C(=O)c1ccccc1)CCC2 | > 4 mM (inactive) |
| COc1ccc(N2CC(=O)NC2=O)cc1 | > 4 mM (inactive) |
| COc1cc2nc[nH]c(=O)c2cc1OC | > 4 mM (inactive) |
| CC(C)=CCCC1(C)C=Cc2c(O)c3c(c(CC=C(C)C)c2O1)OC12C(=CCCC1C(C)(C)O[C@@]2(C/C=C(\C)C(=O)O)C(=O)O)C3=O (stereo not given in full) | > 4 mM (inactive) |
| COc1ccc2c(c1)OC[C@@H](Cc1ccc(OC)c(OC)c1)[C@@H]2O | > 4 mM (inactive) |
| O=C(O)c1onc2ccccc12 | > 4 mM (inactive) |
| CCc1c(C(=O)N2CCOCC2)csc1C | > 4 mM (inactive) |

| SMILES | Kd |
| --- | --- |
| Cc1occc1C(=O)NCc1ccccn1 | > 4 mM (inactive) |
| Nc1cccc(F)c1-c1ncon1 | > 4 mM (inactive) |
| CC[C@H](/C=C/C(C)C1CCC2C3CCC4=CC(=O)CC[C@]4(C)C3CC[C@]12C)C(C)C (stereo not given in full) | > 4 mM (inactive) |
| NC12CC3CC(C1)CC(O)(C3)C2 | > 4 mM (inactive) |
| CN1CCC(NC(=O)c2cnccn2)CC1 | > 4 mM (inactive) |
| CC1=CC(=O)NC2C=CC=CC12 (stereo not given) | > 4 mM (inactive) |
| CC(=O)N1CCN(C2CCSC2)CC1 (stereo not given) | > 4 mM (inactive) |
| C[C@@H]1CC[C@@]23CCC4(C)[C@@](C=CC5[C@@]6(C)CC[C@H](O)C(C)(C)C6CC[C@]54C)(OC2=O)C3[C@H]1C (stereo not given in full) | > 4 mM (inactive) |
| NCc1cn2ccccc2n1 | > 4 mM (inactive) |
| CNS(=O)(=O)c1cccs1 | > 4 mM (inactive) |
| O=C(NCc1ccco1)c1ccc(=O)[nH]c1 | > 4 mM (inactive) |
| COc1cccc(OCC(=O)N2CCOCC2)c1 | inactive |
| O=c1c(O)cccc2cc(O)c(O)c(O)c12 | > 4 mM (inactive) |
| CC(=O)Oc1c(-c2ccccc2)oc2c(CC=C(C)C)c3c(c(OC(C)=O)c2c1=O)C=CC(C)(C)O3 | > 4 mM (inactive) |
| O=[n+]1cc(C2=CC=CCC2)n([O-])c2c1CCCCC2 | > 4 mM (inactive) |
| O=[n+]1cc(-c2ccccc2)n([O-])c2c1CCC2 | > 4 mM (inactive) |
| CC(=O)c1cc2c(s1)SCC(=O)N2 | > 4 mM (inactive) |
| O=c1ccc2ccccc2o1 | > 4 mM (inactive) |
| CNC(=S)N1CCN(C(=O)c2ccco2)CC1 | > 4 mM (inactive) |
| Cc1cc(=O)oc2c1c(C)nn2CN1CCN(C)CC1 | > 4 mM (inactive) |
| Cc1ccc(Cl)cc1NS(=O)(=O)N1CCOCC1 | > 4 mM (inactive) |
| Brc1ccccc1Cn1c(-c2cscn2)nc2ccccc21 | inactive |
| C/C=C(/C)C(=O)O[C@H]1CC[C@@]2(C)[C@@H]3CC[C@H]4[C@]5(O)C[C@H](O)[C@@]6(O)[C@@H](CN7C[C@@H](C)CC[C@H]7[C@@]6(C)O)[C@]5(O)C[C@@]42OC13O | > 4 mM (inactive) |

| SMILES | Kd |
| --- | --- |
| NCCCCN | > 4 mM (inactive) |
| CC1CCC2(OC1)OC1CC3C4CCC5C[C@@H](O)CCC5(C)C4=CCC3(C)C1[C@@H]2C (stereo not given in full) | > 4 mM (inactive) |
| S=C(Cc1cccnc1)N1CCOCC1 | > 4 mM (inactive) |
| NCc1nnnn1-c1ccccc1 | > 4 mM (inactive) |
| CC(C)C(C)/C=C/C(C)[C@H]1CCC2C3=CCC4CC(=O)CC[C@]4(C)C3CC[C@@]21C (stereo not given in full) | > 4 mM (inactive) |
| CSc1nnc2ccc(-c3cccnc3)nn12 | > 4 mM (inactive) |
| CC(C)NC(=O)c1cc(-n2cnnc2)ccc1Cl | > 4 mM (inactive) |
| Cc1cc(C)n2nc(N)nc2n1 | > 4 mM (inactive) |
| O=C(O)CCNc1n[nH]c(=O)[nH]c1=O | > 4 mM (inactive) |
| NCc1ccc(-n2cccc2)cc1 | > 4 mM (inactive) |
| CC(C)c1ccc(SC(F)(F)C(=O)N2CCOCC2)cc1 | 0.0028 mM |
| COc1cc(CNC(=O)CCCC/C=C/C(C)C)ccc1O | > 4 mM (inactive) |
| CN1CCC(N(C)C2CCN(C)CC2)CC1 | > 4 mM (inactive) |
| C[C@]12CC(=O)C3C(CC[C@@H]4C[C@H](O)CC[C@]34C)C1CC[C@]2(O)C(=O)CO (stereo not given in full) | > 4 mM (inactive) |
| OCc1cccc2c1OCO2 | > 4 mM (inactive) |
| O=C1CCCN1C(=O)CN1CCOCC1 | > 4 mM (inactive) |
| O=C1C2CCCCC2C(=O)N1Cc1cccnc1 (stereo not given) | > 4 mM (inactive) |
| Cc1cc(OCC(=O)N2CCOCC2)ccc1C(C)C | inactive |
| CC(C)=CCC[C@](C)(O)C1CC=C(C)CC1 (stereo not given in full) | > 4 mM (inactive) |
| COC(=O)c1cc(-c2c[nH]c3ccccc23)n[nH]1 | > 4 mM (inactive) |
| CN(C)C(=O)CSc1nc2ccccc2c(=O)[nH]1 | > 4 mM (inactive) |
| Nc1cc(=O)[nH]c(=S)n1-c1ccc(F)cc1 | > 4 mM (inactive) |
| Nc1nc(-c2ccccc2)ns1 | > 4 mM (inactive) |

| SMILES | Kd |
| --- | --- |
| COc1ccccc1NC(=O)CCC(=O)O | > 4 mM (inactive) |
| C=C1C([C@]2(C)C(CC(=O)OC)[C@@](C)(COC(C)=O)OC(=O)C[C@@H]2OC(C)=O)[C@@H](OC=O)[C@H](OC(=O)C(OC(C)=O)C(C)CC)[C@@]2(C)[C@H](c3ccoc3)CC(=O)C12O (stereo not given in full) | > 4 mM (inactive) |
| CC12OC(=O)CC3C(C)(C)[C@H](O)C=C[C@]3(C)C1CC[C@]1(C)C2=CC(=O)O[C@H]1c1ccoc1 (stereo not given in full) | > 4 mM (inactive) |
| CSc1ccccc1NC(=O)Cn1c(-c2cscn2)nc2ccccc21 | > 4 mM (inactive) |
| Cc1cc(C)nc(N(C#N)Cc2ccccc2)n1 | > 4 mM (inactive) |
| COC(=O)[C@H]1[C@H]2C[C@H]3c4[nH]c5ccccc5c4CCN3C[C@H]2CC[C@@H]1O | > 4 mM (inactive) |
| O=S1(=O)NC(=NCc2ccccc2)c2ccccc21 | > 4 mM (inactive) |
| OC1CC2CCC1C2 (stereo not given) | > 4 mM (inactive) |
| CN1CCC[C@H]1c1cccnc1 | > 4 mM (inactive) |
| Cc1nc2ccc(C(=O)O)cc2nc1C | > 4 mM (inactive) |
| CC(C)C(C)/C=C/C(C)C1CCC2C3=CC=C4CC(O)CCC4(C)C3CCC21C (stereo not given) | > 4 mM (inactive) |
| CCC[C@H]1CC2=C(C[C@@H](CC)CC3=C1C(=O)OC3=O)C(=O)OC2=O | > 4 mM (inactive) |
| CC1CCC2(OC1)OC1CC3C4CC[C@H]5C[C@@H](O)CC[C@]5(C)C4CC(=O)[C@]3(C)C1C2C (stereo not given in full) | > 4 mM (inactive) |
| CCC(=O)NC(=S)Nc1ccc(C(N)=O)cc1 | > 4 mM (inactive) |
| N#Cc1ccccc1Cn1c(-c2cscn2)nc2ccccc21 | inactive |
| Cc1cc(C(=O)NCc2ccco2)cs1 | > 4 mM (inactive) |
| CC(C)CC(=O)NC1CCSC1=O (stereo not given) | > 4 mM (inactive) |
| COc1cc(N)ccc1NC(=O)c1cccs1 | > 4 mM (inactive) |
| CCOc1cc(C)c(Cl)cc1S(=O)(=O)N(C)C | > 4 mM (inactive) |
| Cc1[nH]ccc2c1[nH]c1cc(=O)ccc12 | > 4 mM (inactive) |
| Nc1cc(F)cc(F)c1 | > 4 mM (inactive) |
| COC(=O)/C(C)=C\CC12OC(C)(C)C3CC(C=C4C(=O)c5c(OC)c6c(c(CC=C(C)C)c5OC431)OC(C)(CCC=C(C)C)C=C6)C2=O (stereo not given) | > 4 mM (inactive) |
| Cc1cc(N2CCN(C)CC2)ncn1 | > 4 mM (inactive) |

| SMILES | Kd |
| --- | --- |
| O=C(NCc1ccccn1)c1ccccc1Cl | > 4 mM (inactive) |
| c1ccc(CNc2ncnc3nc[nH]c23)nc1 | > 4 mM (inactive) |
| CCCCCC(=O)Cc1cc(O)cc(O)c1C(=O)Oc1cc(CC(=O)CCCCC)c(C(=O)O)c(OC)c1 | > 4 mM (inactive) |
| CC(=O)c1csc(-c2cc(C)on2)n1 | > 4 mM (inactive) |
| O=CN1CCN(C(=O)c2ccccc2F)CC1 | > 4 mM (inactive) |
| Cc1nn2c(-c3ccncc3)nnc2c2ccccc12 | > 4 mM (inactive) |
| COC(=O)CC1NC2CCCCC2NC1=O (stereo not given) | > 4 mM (inactive) |
| COC1=CC(C)[C@@H]2C[C@H]3OC(=O)C[C@H]4C(C)=C(OC)C(=O)C([C@@]34C)[C@@]2(C)C1=O (stereo not given in full) | > 4 mM (inactive) |
| Cn1c(=O)c2[nH]cnc2n(-c2ccccc2)c1=O | > 4 mM (inactive) |
| CCC(CCC(C)[C@H]1CCC2C3CC=C4C[C@@H](O)CC[C@]4(C)C3CC[C@@]21C)C(C)C (stereo not given in full) | > 4 mM (inactive) |
| c1ccc2nc3c(nc2c1)CCc1nonc1-3 | > 4 mM (inactive) |
| Cc1sc(N)c(C(N)=O)c1C | > 4 mM (inactive) |
| O=C(O)c1csc(-c2cccs2)n1 | > 4 mM (inactive) |
| Nc1ccc(N2CCOCC2)cc1 | > 4 mM (inactive) |
| Cc1cc(F)c(F)c(C(=O)NC2CC2)c1Cl | > 4 mM (inactive) |
| Cc1ccc(NC(=O)C(=O)Nc2ccccn2)cc1 | > 4 mM (inactive) |
| Cc1ccccc1OCC(=O)O | > 4 mM (inactive) |
| CN1C(CC(=O)c2ccccc2)CCCC1CC(O)c1ccccc1 (stereo not given) | > 4 mM (inactive) |
| CC(=O)c1sc2nc(N)nn2c1C | > 4 mM (inactive) |
| Nn1cnn2c(SCc3ccccc3)nnc12 | > 4 mM (inactive) |
| CC1(C)N=C2C(=N)C=CC=C2N1O | > 4 mM (inactive) |
| O=C(c1ccc(F)cc1)C1CCNCC1 | > 4 mM (inactive) |
| CCOC(=O)c1ccc2c(c1)nnn2C | > 4 mM (inactive) |
